In ChEMBL document CHEMBL3792324, “Discovery of KDM5A inhibitors: Homology modeling, virtual screening and structure-activity relationship analysis” (Bioorg Med Chem Lett, 2016):
The source made the active and inactive calls. The rule behind the calls is not given here.

Columns and labels:
[1] = molecular target: T1, Lysine-specific demethylase 5A (Homo sapiens, UniProt P29375); test: […] of KDM5A in human ZR-75-1 cells effect on H3K4me3 expression after 48 hrs by Western blot analysis; type: cell-based
[2] = molecular target: T2, Lysine-specific demethylase 4E (Homo sapiens, UniProt B2RXH2); test: Inhibition of KDM4E (unknown origin) using substrate peptide/ascorbate/2-OG/ Fe(2) as substrate preincubated for 15 mins followed by addition of substrate peptide/ ascorbate/2-OG/ Fe(2) measured after 1 hr by AlphaLISA method
T2 sequence (B2RXH2 whole entry): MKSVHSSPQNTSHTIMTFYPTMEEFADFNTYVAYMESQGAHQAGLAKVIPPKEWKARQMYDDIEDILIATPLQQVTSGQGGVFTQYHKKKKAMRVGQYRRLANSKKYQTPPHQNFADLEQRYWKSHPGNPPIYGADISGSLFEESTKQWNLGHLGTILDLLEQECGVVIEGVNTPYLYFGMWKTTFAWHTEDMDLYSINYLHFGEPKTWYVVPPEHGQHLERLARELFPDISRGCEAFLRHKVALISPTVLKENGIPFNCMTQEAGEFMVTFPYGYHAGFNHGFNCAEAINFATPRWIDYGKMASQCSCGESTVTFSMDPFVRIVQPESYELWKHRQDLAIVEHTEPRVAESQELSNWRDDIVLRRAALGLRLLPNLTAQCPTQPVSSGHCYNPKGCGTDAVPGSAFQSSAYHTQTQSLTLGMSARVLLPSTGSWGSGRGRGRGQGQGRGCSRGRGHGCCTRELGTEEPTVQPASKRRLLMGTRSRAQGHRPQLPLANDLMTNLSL

[3] = molecular target: Lysine-specific demethylase 6B (Homo sapiens, UniProt O15054); test: Inhibition of KDM6B (unknown origin) using substrate peptide/ascorbate/2-OG/ Fe(2) as substrate preincubated for 15 mins followed by addition of substrate peptide/ ascorbate/2-OG/ Fe(2) measured after 1 hr by AlphaLISA method
[4] = molecular target: T3, Lysine-specific demethylase 3A (Homo sapiens, UniProt Q9Y4C1); test: Inhibition of KDM3A (unknown origin) using substrate peptide/ascorbate/2-OG/ Fe(2) as substrate preincubated for 15 mins followed by addition of substrate peptide/ ascorbate/2-OG/ Fe(2) measured after 1 hr by AlphaLISA method
T3 sequence (Q9Y4C1 whole entry): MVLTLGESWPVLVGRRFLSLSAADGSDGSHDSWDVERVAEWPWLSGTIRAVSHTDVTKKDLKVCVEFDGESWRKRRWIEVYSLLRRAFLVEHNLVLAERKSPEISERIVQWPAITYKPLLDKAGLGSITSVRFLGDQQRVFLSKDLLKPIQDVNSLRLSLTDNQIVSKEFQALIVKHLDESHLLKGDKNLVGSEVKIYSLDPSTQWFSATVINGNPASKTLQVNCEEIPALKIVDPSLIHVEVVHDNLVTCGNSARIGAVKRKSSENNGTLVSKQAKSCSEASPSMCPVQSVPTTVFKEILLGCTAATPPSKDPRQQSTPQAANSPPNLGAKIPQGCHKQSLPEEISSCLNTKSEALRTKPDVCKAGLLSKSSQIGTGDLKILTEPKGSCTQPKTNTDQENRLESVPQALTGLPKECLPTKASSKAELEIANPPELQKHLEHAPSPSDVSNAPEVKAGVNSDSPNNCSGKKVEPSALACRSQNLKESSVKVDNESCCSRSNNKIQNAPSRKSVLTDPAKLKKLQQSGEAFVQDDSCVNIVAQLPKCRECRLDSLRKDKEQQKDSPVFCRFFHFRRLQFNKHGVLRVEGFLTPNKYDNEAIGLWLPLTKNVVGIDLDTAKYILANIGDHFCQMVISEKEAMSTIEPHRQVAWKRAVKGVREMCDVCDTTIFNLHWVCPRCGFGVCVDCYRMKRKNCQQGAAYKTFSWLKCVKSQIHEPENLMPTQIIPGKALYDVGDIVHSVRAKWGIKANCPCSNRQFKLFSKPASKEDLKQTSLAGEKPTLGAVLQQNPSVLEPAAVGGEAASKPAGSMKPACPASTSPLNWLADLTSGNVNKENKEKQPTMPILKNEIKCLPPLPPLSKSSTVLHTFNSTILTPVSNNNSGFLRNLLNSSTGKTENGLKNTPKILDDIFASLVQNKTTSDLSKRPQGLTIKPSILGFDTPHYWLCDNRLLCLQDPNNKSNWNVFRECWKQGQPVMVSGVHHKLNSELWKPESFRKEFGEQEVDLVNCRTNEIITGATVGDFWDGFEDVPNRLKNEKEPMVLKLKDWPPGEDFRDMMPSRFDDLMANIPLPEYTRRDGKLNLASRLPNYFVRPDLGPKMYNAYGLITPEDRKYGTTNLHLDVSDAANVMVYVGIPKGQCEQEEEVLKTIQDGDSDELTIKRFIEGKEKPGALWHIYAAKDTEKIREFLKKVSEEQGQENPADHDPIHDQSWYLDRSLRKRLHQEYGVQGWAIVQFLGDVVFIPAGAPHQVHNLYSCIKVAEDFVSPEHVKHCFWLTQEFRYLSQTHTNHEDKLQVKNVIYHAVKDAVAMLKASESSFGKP

[5] = molecular target: T1, Lysine-specific demethylase 5A; test: Inhibition of KDM5A (unknown origin) using substrate peptide/ascorbate/2-OG/ Fe(2) as substrate at 10 uM preincubated for 15 mins followed by addition of substrate peptide/ ascorbate/2-OG/ Fe(2) measured after 1 hr by AlphaLISA method
[6] = molecular target: Probable JmjC domain-containing histone demethylation protein 2C (Homo sapiens, UniProt Q15652); test: Inhibition of KDM3C (unknown origin) using substrate peptide/ascorbate/2-OG/ Fe(2) as substrate preincubated for 15 mins followed by addition of substrate peptide/ ascorbate/2-OG/ Fe(2) measured after 1 hr by AlphaLISA method
[7] = molecular target: T1, Lysine-specific demethylase 5A; test: Inhibition of KDM5A (unknown origin) using substrate peptide/ascorbate/2-OG/ Fe(2) as substrate preincubated for 15 mins followed by addition of substrate peptide/ ascorbate/2-OG/ Fe(2) measured after 1 hr by AlphaLISA method
[8] = molecular target: Lysine-specific demethylase 5B (Homo sapiens, UniProt Q9UGL1); test: Inhibition of KDM5B (unknown origin) using substrate peptide/ascorbate/2-OG/ Fe(2) as substrate preincubated for 15 mins followed by addition of substrate peptide/ ascorbate/2-OG/ Fe(2) measured after 1 hr by AlphaLISA method

T1 sequence (P29375 whole entry): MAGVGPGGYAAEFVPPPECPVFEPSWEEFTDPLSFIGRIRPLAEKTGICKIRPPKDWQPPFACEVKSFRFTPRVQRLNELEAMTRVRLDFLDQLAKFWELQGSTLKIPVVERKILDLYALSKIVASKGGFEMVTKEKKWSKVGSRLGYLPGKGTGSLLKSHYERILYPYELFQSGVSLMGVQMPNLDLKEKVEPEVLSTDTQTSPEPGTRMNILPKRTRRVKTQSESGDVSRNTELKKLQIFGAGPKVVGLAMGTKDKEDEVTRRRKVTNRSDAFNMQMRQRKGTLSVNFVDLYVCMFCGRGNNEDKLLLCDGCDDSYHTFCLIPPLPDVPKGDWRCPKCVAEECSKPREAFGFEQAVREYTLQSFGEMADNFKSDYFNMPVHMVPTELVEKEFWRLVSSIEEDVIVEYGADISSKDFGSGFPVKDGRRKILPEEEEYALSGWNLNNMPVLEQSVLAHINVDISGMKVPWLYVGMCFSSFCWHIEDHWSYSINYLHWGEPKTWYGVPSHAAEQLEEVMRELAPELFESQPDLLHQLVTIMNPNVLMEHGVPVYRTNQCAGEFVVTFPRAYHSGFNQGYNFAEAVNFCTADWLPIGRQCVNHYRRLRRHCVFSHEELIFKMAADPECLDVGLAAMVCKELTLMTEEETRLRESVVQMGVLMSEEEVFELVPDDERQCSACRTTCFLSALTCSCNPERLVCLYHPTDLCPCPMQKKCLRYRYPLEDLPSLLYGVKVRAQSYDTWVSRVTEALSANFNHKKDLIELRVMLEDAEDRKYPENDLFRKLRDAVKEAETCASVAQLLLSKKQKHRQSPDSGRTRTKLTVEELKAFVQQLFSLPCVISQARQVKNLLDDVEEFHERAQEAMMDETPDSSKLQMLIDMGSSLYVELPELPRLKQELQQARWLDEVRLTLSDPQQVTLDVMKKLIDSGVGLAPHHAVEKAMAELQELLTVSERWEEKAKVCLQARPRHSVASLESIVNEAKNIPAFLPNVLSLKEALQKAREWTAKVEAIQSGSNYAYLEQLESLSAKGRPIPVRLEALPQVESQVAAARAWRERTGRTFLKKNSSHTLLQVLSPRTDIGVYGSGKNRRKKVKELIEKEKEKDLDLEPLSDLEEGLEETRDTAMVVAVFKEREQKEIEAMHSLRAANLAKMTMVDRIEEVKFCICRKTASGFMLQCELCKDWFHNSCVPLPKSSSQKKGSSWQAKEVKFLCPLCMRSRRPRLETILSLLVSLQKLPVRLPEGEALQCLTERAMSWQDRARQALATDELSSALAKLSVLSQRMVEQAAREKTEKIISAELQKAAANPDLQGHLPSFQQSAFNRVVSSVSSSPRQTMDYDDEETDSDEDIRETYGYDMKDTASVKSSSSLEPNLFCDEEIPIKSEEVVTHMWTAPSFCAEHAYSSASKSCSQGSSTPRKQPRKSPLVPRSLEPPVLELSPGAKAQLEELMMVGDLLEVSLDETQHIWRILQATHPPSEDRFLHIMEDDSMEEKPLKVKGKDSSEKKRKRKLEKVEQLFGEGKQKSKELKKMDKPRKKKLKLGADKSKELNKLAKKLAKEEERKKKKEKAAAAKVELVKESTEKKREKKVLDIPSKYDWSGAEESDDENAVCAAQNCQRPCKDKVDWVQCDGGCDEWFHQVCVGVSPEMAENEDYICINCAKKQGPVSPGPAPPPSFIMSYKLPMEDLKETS
Probable JmjC domain-containing histone demethylation protein 2C, sequence (Q15652 whole entry, the tested form may be a part): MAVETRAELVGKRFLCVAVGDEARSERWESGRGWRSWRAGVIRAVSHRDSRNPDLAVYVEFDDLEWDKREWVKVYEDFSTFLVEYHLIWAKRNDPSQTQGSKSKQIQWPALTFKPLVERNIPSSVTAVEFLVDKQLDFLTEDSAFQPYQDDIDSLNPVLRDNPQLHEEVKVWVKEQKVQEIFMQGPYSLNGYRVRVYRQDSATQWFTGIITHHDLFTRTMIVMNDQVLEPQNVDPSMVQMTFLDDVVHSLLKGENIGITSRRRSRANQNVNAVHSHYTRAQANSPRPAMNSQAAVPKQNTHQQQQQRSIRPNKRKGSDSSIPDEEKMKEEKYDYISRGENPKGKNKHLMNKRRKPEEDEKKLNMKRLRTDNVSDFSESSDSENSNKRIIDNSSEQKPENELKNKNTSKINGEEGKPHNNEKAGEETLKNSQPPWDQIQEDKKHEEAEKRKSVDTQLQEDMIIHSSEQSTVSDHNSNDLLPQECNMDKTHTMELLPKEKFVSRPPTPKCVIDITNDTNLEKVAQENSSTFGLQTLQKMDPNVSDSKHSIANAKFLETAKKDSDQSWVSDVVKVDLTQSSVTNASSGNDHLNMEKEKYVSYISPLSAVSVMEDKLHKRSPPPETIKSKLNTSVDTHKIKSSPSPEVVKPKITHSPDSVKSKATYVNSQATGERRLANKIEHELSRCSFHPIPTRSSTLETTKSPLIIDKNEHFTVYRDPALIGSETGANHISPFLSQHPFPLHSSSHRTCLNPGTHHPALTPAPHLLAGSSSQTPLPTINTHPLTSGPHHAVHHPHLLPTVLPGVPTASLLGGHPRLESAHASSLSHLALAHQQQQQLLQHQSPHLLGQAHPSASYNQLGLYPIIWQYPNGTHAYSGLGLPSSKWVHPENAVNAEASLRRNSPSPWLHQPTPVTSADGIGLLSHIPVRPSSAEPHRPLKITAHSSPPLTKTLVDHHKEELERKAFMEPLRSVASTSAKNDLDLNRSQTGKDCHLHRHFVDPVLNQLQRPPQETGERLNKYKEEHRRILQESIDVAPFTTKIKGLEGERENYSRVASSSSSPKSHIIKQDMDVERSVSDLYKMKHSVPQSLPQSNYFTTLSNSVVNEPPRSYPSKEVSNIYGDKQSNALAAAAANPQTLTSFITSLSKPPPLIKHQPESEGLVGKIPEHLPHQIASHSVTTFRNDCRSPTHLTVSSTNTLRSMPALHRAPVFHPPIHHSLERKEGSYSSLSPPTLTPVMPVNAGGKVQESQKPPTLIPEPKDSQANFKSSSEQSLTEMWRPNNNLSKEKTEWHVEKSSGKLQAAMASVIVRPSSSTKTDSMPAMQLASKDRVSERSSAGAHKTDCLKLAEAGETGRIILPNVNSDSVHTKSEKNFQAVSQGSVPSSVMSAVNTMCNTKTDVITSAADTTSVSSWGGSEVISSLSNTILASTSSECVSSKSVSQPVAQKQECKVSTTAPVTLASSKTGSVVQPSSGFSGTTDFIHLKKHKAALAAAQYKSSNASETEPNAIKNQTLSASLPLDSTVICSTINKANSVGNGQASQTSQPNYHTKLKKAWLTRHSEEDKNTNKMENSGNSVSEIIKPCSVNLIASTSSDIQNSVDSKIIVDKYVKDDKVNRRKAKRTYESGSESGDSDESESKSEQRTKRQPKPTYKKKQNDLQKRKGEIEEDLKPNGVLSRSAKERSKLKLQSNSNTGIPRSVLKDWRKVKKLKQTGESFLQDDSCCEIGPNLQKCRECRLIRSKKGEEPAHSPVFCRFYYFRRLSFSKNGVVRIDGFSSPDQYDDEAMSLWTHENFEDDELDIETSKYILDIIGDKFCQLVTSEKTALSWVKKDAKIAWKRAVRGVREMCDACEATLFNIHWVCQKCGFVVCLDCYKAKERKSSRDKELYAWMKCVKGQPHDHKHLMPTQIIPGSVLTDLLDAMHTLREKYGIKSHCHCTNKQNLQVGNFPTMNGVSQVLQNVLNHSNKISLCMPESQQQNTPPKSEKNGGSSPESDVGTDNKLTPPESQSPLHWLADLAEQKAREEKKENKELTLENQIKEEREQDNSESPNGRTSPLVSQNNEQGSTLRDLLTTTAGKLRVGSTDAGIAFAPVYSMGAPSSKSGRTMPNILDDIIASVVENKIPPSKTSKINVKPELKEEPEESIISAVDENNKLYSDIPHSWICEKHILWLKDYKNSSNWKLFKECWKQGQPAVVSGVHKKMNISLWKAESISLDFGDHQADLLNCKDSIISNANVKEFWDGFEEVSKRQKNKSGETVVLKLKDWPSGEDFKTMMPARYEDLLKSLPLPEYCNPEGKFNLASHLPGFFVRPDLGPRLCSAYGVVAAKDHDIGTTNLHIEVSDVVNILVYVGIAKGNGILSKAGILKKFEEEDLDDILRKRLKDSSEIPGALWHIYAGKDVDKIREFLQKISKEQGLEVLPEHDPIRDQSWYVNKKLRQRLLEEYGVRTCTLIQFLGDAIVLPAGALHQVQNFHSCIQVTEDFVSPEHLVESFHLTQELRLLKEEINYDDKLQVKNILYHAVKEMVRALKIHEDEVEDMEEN

**Q.** How did the Activity [1] turn out when `COc1ccc(Oc2ccnc(NN)n2)cc1` was run?
**A.** inactive

**Q.** How did the IC50 [2] turn out when `NNc1nccc(C(=O)O)n1` was run?
**A.** 13 µM

**Q.** And the IC50 [3]?
**A.** > 100 µM

**Q.** What about the IC50 [4] of the same compound?
**A.** 43 µM

**Q.** What about the inhibition [5] of the same compound?
**A.** 99%

**Q.** And the IC50 [6]?
**A.** 1.9 µM

**Q.** What about the IC50 [7] of the same compound?
**A.** 0.22 µM

**Q.** And the IC50 [8]?
**A.** > 100 µM

**Q.** `Cc1ccnc(NN)n1` was tested. Which Activity [1] did it give?
**A.** inactive

**Q.** And the inhibition [5]?
**A.** -6%

**Q.** `CCN(C1=C(Cl)C(=O)N(c2cccc(C)c2C)C1=O)c1ccccc1` was tested. Which IC50 [7] did it give?
**A.** 83 µM

**Q.** How did the IC50 [7] turn out when `O=C(COc1cc(O)c2c(=O)cc(-c3ccccc3)oc2c1)OCc1ccccc1` was run?
**A.** 4.2 µM

**Q.** Which Activity [1] does the source give for `NNc1ncc(Cl)cn1` here?
**A.** inactive

**Q.** With `NNc1nccc(-c2cccc(C(=O)O)c2)n1` as the compound, how does the inhibition [5] read?
**A.** 26%

**Q.** How did the IC50 [7] turn out when `c1ccc(Cc2nnc3sc(-c4ccccn4)nn23)cc1` was run?
**A.** 25 µM

**Q.** How did the inhibition [5] turn out when `Oc1ccccc1/C=N/Nc1ncc(Cl)cn1` was run?
**A.** 19%

**Q.** For `O=c1c2ccccc2oc2c(O)ccc(O)c12`, which IC50 [7] is on record?
**A.** 25 µM

**Q.** For `NNc1nccc(Oc2ccccc2)n1`, which Activity [1] is on record?
**A.** inactive

**Q.** With `NNc1ncc(F)c(N2CCOCC2)n1` as the compound, how does the inhibition [5] read?
**A.** 0%

**Q.** How did the IC50 [7] turn out when `Cc1ccc(C(=O)c2coc3c2C(=O)C(=O)C(Br)=C3)cc1` was run?
**A.** 5 µM

**Q.** `NNc1ncc(F)cn1` was tested. Which inhibition [5] did it give?
**A.** 10%

**Q.** `NNc1ncccn1` was tested. Which inhibition [5] did it give?
**A.** 8%

**Q.** `O=C(O)c1ccnc(N/N=C/c2ccccc2O)n1` was tested. Which inhibition [5] did it give?
**A.** 88%

**Q.** For `Oc1ccccc1/C=N/Nc1nccc(N2CCOCC2)n1`, which inhibition [5] is on record?
**A.** 42%

**Q.** How did the Activity [1] turn out when `NNc1nccc(N2CCOCC2)n1` was run?
**A.** inactive

**Q.** Which IC50 [7] does the source give for `CNc1ccccc(C(=O)/C=C/c2cccc(Oc3ccccc3)c2)c1=O` here?
**A.** 64 µM

**Q.** For `N#Cc1ccc(Nc2nc(NN)ncc2[N+](=O)[O-])cc1`, which inhibition [5] is on record?
**A.** 14%

**Q.** How did the Activity [1] turn out when `Oc1ccccc1/C=N/Nc1ncc(F)cn1` was run?
**A.** inactive

**Q.** `O=C(O)c1ccnc(N/N=C/c2ccccc2)n1` was tested. Which inhibition [5] did it give?
**A.** 0%

**Q.** `Cc1ccnc(N/N=C/c2ccccc2O)n1` was tested. Which inhibition [5] did it give?
**A.** 44%

**Q.** `NNC(=O)c1ccc(O)cc1` was tested. Which IC50 [7] did it give?
**A.** 13 µM

**Q.** How did the IC50 [7] turn out when `O=C1c2ccccc2C(=O)c2c1ccc1c(=O)n(-c3ccc(Cl)cc3)[nH]c21` was run?
**A.** 13 µM

**Q.** With `O=C(O)c1ccnc(N/N=C/c2ccco2)n1` as the compound, how does the inhibition [5] read?
**A.** 3%

**Q.** How did the inhibition [5] turn out when `Oc1ccccc1/C=N/Nc1ncc(F)c(N2CCOCC2)n1` was run?
**A.** 58%

**Q.** What about the IC50 [7] of the same compound?
**A.** 2.3 µM

**Q.** How did the IC50 [7] turn out when `O=C(NNc1c2ccccc2nc2ccccc12)c1ccccn1` was run?
**A.** 7 µM

**Q.** `NNc1nccc(Oc2ccc(F)cc2)n1` was tested. Which Activity [1] did it give?
**A.** inactive

**Q.** `NNc1ncc2ccccc2n1` was tested. Which Activity [1] did it give?
**A.** inactive

**Q.** With `Oc1ccccc1/C=N/Nc1ncccn1` as the compound, how does the inhibition [5] read?
**A.** 32%

**Q.** Which Activity [1] does the source give for `NNc1nccc(C(F)(F)F)n1` here?
**A.** inactive
